Reference: patent US8415386B2, “Azolopyrrolone melanin concentrating hormone receptor-1 antagonists” (Bristol-Myers Squibb Company, priority 2008, dated 2013)
Counter-ions that a name gives are not always drawn.

molecular target: T1, mutated (E4Q, A5T) hMCHR1 receptor (Homo sapiens, UniProt Q99705, A5T/E4Q); experiment: Radioligand Binding Assay for Assessment of MCHR1 Activity; details: membranes from stably transfected HEK-293 cells; competition with [Phe13,[125I]Tyr19]-MCH
T1 construct: expressed in transfected cells; host or cells: HEK-293 (stably transfected), membranes
Method: Radioligand Binding Assay for Assessment of MCHR1 Activity
Membranes from stably transfected HEK-293 cells expressing a mutated (E4Q, A5T) hMCHR1 receptor were prepared by dounce homogenization and differential centrifugation. Binding experiments were carried out with 0.5-1.0 ug of membrane protein incubated in a total of 0.2 ml in 25 mM HEPES (pH 7.4) with 10 mM MgCl2, 2 mM EGTA, and 0.1% BSA (Binding Buffer) for 90 min. For competition binding assays, reactions were carried out in the presence of with 0.06-0.1 nM [Phe^13, [^125I]Tyr^19]-MCH and increasing concentrations of unlabeled test molecules. Reactions were terminated by rapid vacuum filtration over 96 well-GFC UNIFILTER® plates pre-coated with 0.075 ml binding buffer containing 1% BSA, and washed 3 times with 0.4 ml of Phospho-buffered Saline (pH 7.4) containing 0.01% TX-100. Filters were dried, 0.05 ml microscint 20 was added to each well and radioactivity was subsequently quantified by scintillation counting on a TOPCOUNT® microplate scintillation counter (Packard). Inhibitory constants were determined by nonlinear least squares analysis using a four parameter logistic equation.

T1 sequence (Q99705 whole entry E4Q/A5T): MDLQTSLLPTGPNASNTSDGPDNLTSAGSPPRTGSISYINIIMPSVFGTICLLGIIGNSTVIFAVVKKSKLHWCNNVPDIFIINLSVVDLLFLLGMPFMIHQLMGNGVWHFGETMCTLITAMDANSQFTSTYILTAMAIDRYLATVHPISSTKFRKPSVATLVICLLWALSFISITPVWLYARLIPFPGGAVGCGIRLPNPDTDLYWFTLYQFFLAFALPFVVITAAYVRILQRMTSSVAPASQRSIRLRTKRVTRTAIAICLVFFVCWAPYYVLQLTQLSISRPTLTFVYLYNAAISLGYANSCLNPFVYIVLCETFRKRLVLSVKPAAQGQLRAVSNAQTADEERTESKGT

| SMILES | Ki |
| --- | --- |
| COc1cc(N2Cc3nn(-c4ccc(Cl)cc4)cc3C2=O)ccc1OC[C@H](O)C1CC1 [Example 1, (R)-2-(4-Chlorophenyl)-5-(4-(2-cyclopropyl-2-hydroxyethoxy)-3-methoxyphenyl)-5,6-dihydropyrrolo[3,4-c]pyrazol-4(2H)-one] | 41.4 nM |
| COc1cc(N2Cc3nn(-c4ccc(Cl)cc4)cc3C2=O)ccc1OCC(C)O (centres unmarked) [Example 2, 2-(4-Chlorophenyl)-5-(4-(2-hydroxypropoxy)-3-methoxyphenyl)-5,6-dihydropyrrolo[3,4-c]pyrazol-4(2H)-one] | 334 nM |
| COc1cc(N2Cc3nn(-c4ccc(Cl)cc4)cc3C2=O)ccc1OCC(C)(C)O [Example 3, 2-(4-Chlorophenyl)-5-(4-(2-hydroxy-2-methylpropoxy)-3-methoxyphenyl)-5,6-dihydropyrrolo[3,4-c]pyrazol-4(2H)-one] | 106 nM |
| COc1cc(N2Cc3nn(-c4ccc(Cl)cc4)cc3C2=O)ccc1OCC(C)OS(C)(=O)=O (centres unmarked) [Example 4, 1-(4-(2-(4-Chlorophenyl)-4-oxopyrrolo[3,4-c]pyrazol-5(2H,4H,6H)-yl)-2-methoxyphenoxy)propan-2-yl methanesulfonate] | 41.1 nM |
| COc1cc(N2Cc3cn(-c4ccc(Cl)cc4)nc3C2=O)ccc1OCC(C)OS(C)(=O)=O (centres unmarked) [Example 5, 1-(4-(2-(4-Chlorophenyl)-6-oxopyrrolo[3,4-c]pyrazol-5(2H,4H,6H)-yl)-2-methoxyphenoxy)propan-2-yl methanesulfonate] | 13.7 nM |
| COc1cc(N2Cc3cn(-c4ccc(Cl)cc4)nc3C2=O)ccc1OCC(C)O (centres unmarked) [Example 6, 2-(4-Chlorophenyl)-5-(4-(2-hydroxypropoxy)-3-methoxyphenyl)-4,5-dihydropyrrolo[3,4-c]pyrazol-6(2H)-one] | 13.2 nM |
| COc1cc(N2Cc3cn(-c4ccc(Cl)cc4)nc3C2=O)ccc1OCC(C)(C)O [Example 8, 2-(4-Chlorophenyl)-5-(4-(2-hydroxy-2-methylpropoxy)-3-methoxyphenyl)-4,5-dihydropyrrolo[3,4-c]pyrazol-6(2H)-one] | 12.5 nM |
| COc1cc(N2Cc3cn(-c4ccc(Cl)cc4)nc3C2=O)ccc1OC[C@H](OC(=O)[C@@H](N)C(C)C)C1CC1 [Example 10, (S)-((R)-2-(4-(2-(4-Chlorophenyl)-6-oxopyrrolo[3,4-c]pyrazol-5(2H,4H,6H)-yl)-2-methoxyphenoxy)-1-cyclopropylethyl) 2-amino-3-methylbutanoate, TFA salt] | 2.7 nM |
| COc1cc(N2Cc3nn(-c4ccc(Cl)cc4)nc3C2=O)ccc1OCCN1CCCC1 [Example 12, 2-(4-Chlorophenyl)-5-(3-methoxy-4-(2-(pyrrolidin-1-yl)ethoxy)phenyl)-5,6-dihydropyrrolo[3,4-d][1,2,3]triazol-4(2H)-one] | 2.3 nM |
| COc1cc(N2Cc3nn(-c4ccc(Cl)cc4)nc3C2=O)ccc1OCC(C)(C)O [Example 13, 2-(4-Chlorophenyl)-5-(4-(2-hydroxy-2-methylpropoxy)-3-methoxyphenyl)-5,6-dihydropyrrolo[3,4-d][1,2,3]triazol-4(2H)-one] | 34.3 nM |
| COc1cc(N2Cc3nn(-c4ccc(Cl)cc4)nc3C2=O)ccc1OCC(O)C1CC1 (centres unmarked) [Example 14, 2-(4-Chlorophenyl)-5-(4-(2-cyclopropyl-2-hydroxyethoxy)-3-methoxyphenyl)-5,6-dihydropyrrolo[3,4-d][1,2,3]triazol-4(2H)-one] | 113 nM |
| COc1cc(N2Cc3nn(-c4ccc(Cl)cc4)nc3C2=O)ccc1OCC(=O)C1CC1 [Example 14B, 2-(4-Chlorophenyl)-5-(4-(2-cyclopropyl-2-oxoethoxy)-3-methoxyphenyl)-5,6-dihydropyrrolo[3,4-d][1,2,3]triazol-4(2H)-one] | 304 nM |

Continued, values first:

| Ki | SMILES |
| --- | --- |
| 49.4 nM | COc1ccc(N2Cc3cn(-c4ccc(Cl)cc4)nc3C2=O)cc1OC [Example 7, 2-(4-Chlorophenyl)-5-(3,4-dimethoxyphenyl)-4,5-dihydropyrrolo[3,4-c]pyrazol-6(2H)-one] |
| 8.6 nM | COc1cc(N2Cc3cn(-c4ccc(Cl)cc4)nc3C2=O)ccc1OC[C@H](O)C1CC1 [Example 9, (R)-2-(4-Chlorophenyl)-5-(4-(2-cyclopropyl-2-hydroxyethoxy)-3-methoxyphenyl)-4,5-dihydropyrrolo[3,4-c]pyrazol-6(2H)-one] |
| 81 nM | O=C1c2nn(-c3ccc(Cl)cc3)cc2CN1c1ccc(N2CC[C@@H](O)C2)nc1 [Example 11, (R)-2-(4-Chlorophenyl)-5-(6-(3-hydroxypyrrolidin-1-yl)pyridin-3-yl)-4,5-dihydropyrrolo[3,4-c]pyrazol-6(2H)-one] |
| 0.7 nM | COc1cc(N2Cc3cn(-c4ccc(Cl)cc4)nc3C2=O)ccc1OCCN1CCCC1 [Example 15, 2-(4-Chlorophenyl)-5-(3-methoxy-4-(2-(pyrrolidin-1-yl)ethoxy)phenyl)-4,5-dihydropyrrolo[3,4-c]pyrazol-6(2H)-one, TFA] |
| 2.5 nM | CNC1CCN(c2ccc(N3Cc4cn(-c5ccc(Cl)cc5)nc4C3=O)cn2)C1 (centres unmarked) [Example 16, 2-(4-Chlorophenyl)-5-(6-(3-(methylamino)pyrrolidin-1-yl)pyridin-3-yl)-4,5-dihydropyrrolo[3,4-c]pyrazol-6(2H)-one, 2 TFA] |
| 3.6 nM | CN(C(=O)OC(C)(C)C)C1CCN(c2ccc(N3Cc4cn(-c5ccc(Cl)cc5)nc4C3=O)cn2)C1 (centres unmarked) [Example 16G, tert-Butyl 1-(5-(2-(4-chlorophenyl)-6-oxopyrrolo[3,4-e]pyrazol-5(2H,4H,6H)-yl)pyridin-2-yl)pyrrolidin-3-yl(methyl)carbamate] |
| 0.9 nM | CN(C)[C@H]1CCN(c2ccc(N3Cc4cn(-c5ccc(Cl)cc5)nc4C3=O)cn2)C1 [Example 17, (S)-2-(4-Chlorophenyl)-5-(6-(3-(dimethylamino)pyrrolidin-1-yl)pyridin-3-yl)-4,5-dihydropyrrolo[3,4-c]pyrazol-6(2H)-one, 2 HCl] |
| 0.7 nM | CN(C)[C@@H]1CCN(c2ccc(N3Cc4cn(-c5ccc(Cl)cc5)nc4C3=O)cn2)C1 [Example 18, HCl] |
| 1.3 nM | CN[C@@H]1CCN(c2ccc(N3Cc4cn(-c5ccc(Cl)cc5)nc4C3=O)cn2)C1 [Example 19, (R)-2-(4-Chlorophenyl)-5-(6-(3-(methylamino)pyrrolidin-1-yl)pyridin-3-yl)-4,5-dihydropyrrolo[3,4-c]pyrazol-6(2H)-one, 2 HCl] |
| 184 nM | CN(C(=O)OC(C)(C)C)[C@@H]1CCN(c2ccc(N3Cc4cn(-c5ccc(Cl)cc5)nc4C3=O)cn2)C1 [Example 19A, (R)-tort-Butyl 1-(5-(2-(4-chlorophenyl)-6-oxopyrrolo[3,4-c]pyrazol-5(2H,4H,6H)-yl)pyridin-2-yl)pyrrolidin-3-yl(methyl)carbamate] |
| 0.9 nM | CN[C@H]1CCN(c2ccc(N3Cc4cn(-c5ccc(Cl)cc5)nc4C3=O)cn2)C1 [Example 20, (S)-2-(4-Chlorophenyl)-5-(6-(3-(methylamino)pyrrolidin-1-yl)pyridin-3-yl)-4,5-dihydropyrrolo[3,4-c]pyrazol-6(2H)-one, 2 HCl] |
| 784 nM | CN(C(=O)OC(C)(C)C)[C@H]1CCN(c2ccc(N3Cc4cn(-c5ccc(Cl)cc5)nc4C3=O)cn2)C1 [Example 20A, (S)-tert-Butyl 1-(5-(2-(4-chlorophenyl)-6-oxopyrrolo[3,4-c]pyrazol-5(2H,4H,6H)-yl)pyridin-2-yl)pyrrolidin-3-yl(methyl)carbamate] |
| 2.7 nM | CC(C)(C)NC1CCN(c2ccc(N3Cc4cn(-c5ccc(Cl)cc5)nc4C3=O)cn2)C1 (centres unmarked) [Example 24, 5-(6-(3-(tert-Butylamino)pyrrolidin-1-yl)pyridin-3-yl)-2-(4-chlorophenyl)-4,5-dihydropyrrolo[3,4-c]pyrazol-6(2H)-one] |
| 0.9 nM | O=C1c2nn(-c3ccc(Cl)cc3)cc2CN1c1ccc(N2CCC(N3CCCC3)C2)nc1 (centres unmarked) [Example 28, 5-(6-(1,3′-Bipyrrolidin-1′-yl)pyridin-3-yl)-2-(4-chlorophenyl)-4,5-dihydropyrrolo[3,4-c]pyrazol-6(2H)-one] |
| 17.1 nM | O=C1c2nn(-c3ccc(Cl)cc3)cc2CN1c1ccc(N2CCC(N3CCCC3)CC2)nc1 [Example 29, 2-(4-Chlorophenyl)-5-(6-(4-(pyrrolidin-1-yl)piperidin-1-yl)pyridin-3-yl)-4,5-dihydropyrrolo[3,4-c]pyrazol-6(2H)-one] |
| 0.5 nM | CN[C@H]1CCN(c2ccc(N3Cc4cn(-c5ccc(Cl)cc5)nc4C3=O)cc2OC)C1 [Example 42, (S)-2-(4-Chlorophenyl)-5-(3-methoxy-4-(3-(methylamino)pyrrolidin-1-yl)phenyl)-4,5-dihydropyrrolo[3,4-c]pyrazol-6(2H)-one, 2 TFA] |
| 32.7 nM | CN[C@H]1CCN(c2ncc(N3Cc4cn(-c5ccc(Cl)cc5)nc4C3=O)cn2)C1 [Example 47, (S)-2-(4-Chlorophenyl)-5-(2-(3-(methylamino)pyrrolidin-1-yl)pyrimidin-5-yl)-4,5-dihydropyrrolo[3,4-c]pyrazol-6(2H)-one] |
